Data on four compounds can be found in patent US4647693A, “Antibiotics DO-248-A and B and process for preparing the same” (Shionogi & Co., Ltd., priority 1984, dated 1987).

The subject of data set [1] is M. tuberculosis H37Rv. The data set can be described thus: MIC, two-fold dilution, Dubos Tween albumin liquid medium. The class given is cell-based. Conditions: Mycobacterium tuberculosis, 336 h, 37° C., 2 weeks, read-out: minimal inhibitory concentration (MIC). On the procedure: (§1) Fast-acid bacillus (0.01 mg) shown in Table 1 was inoculated into 2.0 ml of Dubos Tween albumin liquid medium and the minimal inhibitory concentration (MIC, μg/ml) of DO-248-A (Compound A), kanamycin (KM) and rifampicin (RFP) was measured by two-fold dilution method. The incubation temperature for Mycobacterium marinum was 28° C. and that for all other microorganisms was 37° C. The judgement was made generally 2 weeks later but 1 week later on M. furtuitum and M. chelonei and 5 weeks later on M. xenopi.

The subject of data set [2] is M. bovis BCG. The data set can be described thus: microbe, parasite or virus in culture. It counts as cell-based. The following applies: Mycobacterium tuberculosis variant bovis BCG, 336 h, read-out: minimal inhibitory concentration (MIC).
Data set [3] has as its system M. kansasii KMC1101. The data set can be described thus: MIC, two-fold dilution, Dubos Tween albumin liquid medium. The class given is cell-based. Conditions: Mycobacterium kansasii, read-out: minimal inhibitory concentration (MIC).
For data set [4], the system named is M. scrofulaceum KMC2102. Described as above. The class given is cell-based. Conditions: Mycobacterium scrofulaceum, read-out: minimal inhibitory concentration (MIC).
Data set [5] relates to M. gordonae KMC2201. The description is as above. Conditions: Mycobacterium gordonae, read-out: minimal inhibitory concentration (MIC). It counts as cell-based.
Data set [6] deals with M. szulgai KMC2401. The data set is described as above. The class given is cell-based. Conditions: 336 h, read-out: minimal inhibitory concentration (MIC).
The subject of data set [7] is M. xenopi KMC2301. The data set is described as above. The class given is cell-based. Conditions: Mycobacterium xenopi.
Data set [8] concerns M. simiae KMC1302. The description is as above. It counts as cell-based. Conditions: 336 h, read-out: minimal inhibitory concentration (MIC).
Data set [9] has as its system M. avium KMC3101. The data set is described as above. The class given is cell-based. Conditions: Mycobacterium avium, read-out: minimal inhibitory concentration (MIC).
Data set [10] has as its system M. intracellulare KMC3209. The data set is described as above. It counts as cell-based. Conditions: Mycobacterium intracellulare, read-out: minimal inhibitory concentration (MIC).
Data set [11] concerns M. nonchromogenicum KMC3602. The data set is described as above. The class given is cell-based. The following applies: 336 h, read-out: minimal inhibitory concentration (MIC).
Data set [12] relates to M. fortuitum KMC4101. The description is as above. It counts as cell-based. The following applies: Mycolicibacterium fortuitum, read-out: minimal inhibitory concentration (MIC).
The subject of data set [13] is M. chelonei KMC4201. The data set is described as above. It counts as cell-based. Conditions: read-out: minimal inhibitory concentration (MIC).
Data set [14] deals with M. avium-intracellulare clinical isolated strain 16. Described as above. The class given is cell-based. The following applies: 336 h, read-out: minimal inhibitory concentration (MIC).
The subject of data set [15] is fast-acid bacteria including tubercle bacillus. The data set can be described thus: Antibacterial activity against fast-acid (acid-fast) bacteria, in words. The following applies: for antibacterial activity against fast-acid (acid-fast) bacteria: in words. The class given is cell-based. On the procedure: as §1
Data set [16] has as its system kanamycin-resistant strains. The data set can be described thus: Antibacterial activity against resistant strains, in words. The class given is cell-based. As for the experimental part:
as §1

Data set [17] relates to rifanpicin-resistant strains. The data set is described as above. The class given is cell-based. As for the experimental part: as §1
For data set [18], the system named is M. aviumintracellulare, a causative microorganism of refractory atypical fast-acid disease. The data set can be described thus: Comparative antibacterial activity, in words. The class given is cell-based. The following applies: for activity against the pathogenic bacterium of atypical fast-acid bacterium disease relative to kanamycin: compared with kanamycin.
Data set [19] is described as follows: Solubility. The class given is physicochemical.
Where [20] appears, read: 336 h, M. kansasii KMC1101, 37° C., 2 weeks.
[21] abbreviates: 336 h, M. scrofulaceum KMC2102, 37° C., 2 weeks.
The mark [22] stands for this setting: 336 h, M. gordonae KMC2201, 37° C., 2 weeks.
Where [23] appears, read: M. szulgai KMC2401, 37° C., 2 weeks.
The mark [24] stands for this setting: M. xenopi KMC2301, 37° C., 5 weeks, read-out: minimal inhibitory concentration (MIC).
[25] abbreviates: M. simiae KMC1302, 37° C., 2 weeks.
The mark [26] stands for this setting: 336 h, M. avium KMC3101, 37° C., 2 weeks.
Where [27] appears, read: 336 h, M. intracellulare KMC3209, 37° C., 2 weeks.
Setting [28] is: M. nonchromogenicum KMC3602, 37° C., 2 weeks.
The mark [29] stands for this setting: 168 h, M. fortuitum KMC4101, 37° C., 1 week.
The mark [30] stands for this setting: 168 h, M. chelonei KMC4201, 37° C., 1 week.
Where [31] appears, read: M. avium-intracellulare clinical isolated strain 16, 37° C., 2 weeks.

≈ marks a conversion by molar mass, not a printed value. Entries after “also recorded” stand apart in the source; their conditions may differ. Read-outs that look alike come from different tables or passages of the source. Where only a bound is given, the exact number is not on record here.

Regarding `CC(C)c1c(O)cc(C(NC(=N)N)C(=O)NCC(=O)O)cc1O` (stereo not drawn) [DO-248-A, N-(α-guanidino-3,5-dihydroxy-4-isopropylphenylacetyl)glycine], the MIC in [1] worked out at 0.05 mg/L (≈ 0.154 µM); in data set [2], 0.05 mg/L (≈ 0.154 µM); in [3] (setting [20]), 0.00313 mg/L (≈ 0.00965 µM); in [4] (setting [21]), 0.2 mg/L (≈ 0.617 µM); in [5] (setting [22]) it was 0.00625 mg/L (≈ 0.0193 µM); in [6] (setting [23]), 3.13 mg/L (≈ 9.65 µM). Besides, the MIC is 0.39 mg/L (≈ 1.2 µM) in data set [7] (setting [24]); 6.25 mg/L (≈ 19.3 µM) in data set [8] (setting [25]); 0.78 mg/L (≈ 2.4 µM) in data set [9] (setting [26]); 0.025 mg/L (≈ 0.0771 µM) in data set [10] (setting [27]); 12.5 mg/L (≈ 38.5 µM) in data set [11] (setting [28]); more than 25 mg/L in data set [12] (setting [29]). Also, the figures for the MIC in data set [13] (setting [30]) and in data set [14] (setting [31]) were more than 25 mg/L and 0.1 mg/L (≈ 0.308 µM), respectively. For the same compound, the “antibacterial activity against fast-acid (acid-fast) bacteria” value in data set [15] is “effective; also recorded: have antibacterial activity”. The “effectiveness against kanamycin-resistant strains” value in data set [16] is reported as “effective; also recorded: have antibacterial activity”. In addition, the “effectiveness against rifanpicin-resistant strains” value in data set [17] is recorded as “effective; also recorded: have antibacterial activity”. For the same compound, the “activity against the pathogenic bacterium of atypical fast-acid bacterium disease relative to kanamycin” value in data set [18] is on record as “more active”. The “effectiveness against M. aviumintracellulare relative to kanamycin and rifanpicin” value in data set [18] (compared with kanamycin and rifanpicin) is “more effective”. Besides, the Solubility entry is “slightly soluble” in data set [19] (in acetone); “insoluble” in data set [19] (in benzene); “slightly soluble” in data set [19] (in chloroform); “readily soluble” in [19] (in dimethylformamide); “readily soluble” in data set [19] (in ethanol); “insoluble” in [19] (in ether). Moreover, the Solubility result in data set [19] (in ethylacetate) is “slightly soluble”; in [19] (in hexane), “insoluble”; in data set [19] (in methanol), “readily soluble”; in data set [19] (in water) it was “soluble”.

Take `CCc1c(O)cc(C(NC(=N)N)C(=O)NCC(=O)O)cc1O` (stereo not drawn) [DO-248-B, N-(α-guanidino-3,5-dihydroxy-4-ethylphenylacetyl)glycine]: the “effectiveness relative to DO-248-A” value in data set [15] (compared with DO-248-A) is “as effective as DO-248-A”. For the same compound, in data set [15], the “antibacterial activity against fast-acid (acid-fast) bacteria” value was “effective; also recorded: have antibacterial activity”. Further, the “effectiveness against kanamycin-resistant strains” value in [16] is given as “have antibacterial activity”. Besides, in [17], the “effectiveness against rifanpicin-resistant strains” value is “have antibacterial activity”. Besides, the “activity against the pathogenic bacterium of atypical fast-acid bacterium disease relative to kanamycin” value in data set [18] is “more active”.

For `NC[C@H]1O[C@H](O[C@H]2[C@H](O)[C@@H](O[C@H]3O[C@H](CO)[C@@H](O)[C@H](N)[C@H]3O)[C@H](N)C[C@@H]2N)[C@H](O)[C@@H](O)[C@@H]1O` [KM, kanamycin], the MIC turned out to be 0.025 mg/L (≈ 0.0516 µM) in [1]; 0.00156 mg/L (≈ 0.00322 µM) in [2]; 6.25 mg/L (≈ 12.9 µM) in data set [3] (KMC1101, 336 h); 0.0125 mg/L (≈ 0.0258 µM) in data set [4] (KMC2102, 336 h); 0.39 mg/L (≈ 0.805 µM) in data set [5] (KMC2201, 336 h); 1.56 mg/L (≈ 3.22 µM) in [6]. Further, the MIC in data set [7] (KMC2301, read-out: minimal inhibitory concentration (MIC)) was 0.1 mg/L (≈ 0.206 µM); in data set [8], 12.5 mg/L (≈ 25.8 µM); in [9] (KMC3101, 336 h), 3.13 mg/L (≈ 6.46 µM); in data set [10] (KMC3209, 336 h) it was 0.05 mg/L (≈ 0.103 µM); in [11], more than 25 mg/L; in data set [12] (KMC4101, 168 h), 25 mg/L (≈ 51.6 µM). In addition, the MIC in [13] (KMC4201, 168 h) was more than 25 mg/L; in data set [14], 6.25 mg/L (≈ 12.9 µM).

For the compound `CO[C@H]1/C=C/O[C@@]2(C)Oc3c(C)c(O)c4c(O)c(c(/C=N/N5CCN(C)CC5)c(O)c4c3C2=O)NC(=O)/C(C)=C\C=C\[C@H](C)[C@H](O)[C@@H](C)[C@@H](O)[C@@H](C)[C@H](OC(C)=O)[C@@H]1C` [RFP, rifampicin], the MIC in data set [1] is less than 0.001 mg/L; in data set [2] it was less than 0.001 mg/L; in data set [3] (setting [20]), 0.0125 mg/L (≈ 0.0152 µM); in [4] (setting [21]) it was 0.00313 mg/L (≈ 0.0038 µM); in data set [5] (setting [22]) it was 0.0125 mg/L (≈ 0.0152 µM); in data set [6] (setting [23]), 0.025 mg/L (≈ 0.0304 µM). The MIC was 0.00625 mg/L (≈ 0.00759 µM) in data set [7] (setting [24]); more than 25 mg/L in [8] (setting [25]); 0.2 mg/L (≈ 0.243 µM) in [9] (setting [26]); less than 0.001 mg/L in data set [10] (setting [27]); 25 mg/L (≈ 30.4 µM) in data set [11] (setting [28]); 3.13 mg/L (≈ 3.8 µM) in data set [12] (setting [29]). The figures for the MIC in data set [13] (setting [30]) and in data set [14] (setting [31]) were 6.25 mg/L (≈ 7.59 µM) and 3.13 mg/L (≈ 3.8 µM), respectively.
